Test results from US20260250318A1, “COMPOSITIONS AND METHODS FOR CROSSING THE BLOOD BRAIN BARRIER” (VOYAGER THERAPEUTICS, INC., priority 2022, published 2026).

Assays:
Details in all cases: synthetic library passage 3, intravenous, relative to wild-type AAV9
[1] = system: brain, spinal cord, and DRG of the NHPs; assay: NGS fold enrichment of synthetic library (passage 3) in NHPs, first cross-species screen; format: in vivo, cynomolgus macaques (Macaca fascicularis)
Outline: (§1)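 Passage-3 synthetic capsid library given intravenously […] to NHPs (2-4 years) and BALB/c or C57Bl/6 mice (n=3, 6-8 weeks). After e.g. 28 days, tissue RNA was RT-PCR amplified and NGS-sequenced; values are fold enrichment of each variant relative to wild-type AAV9.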

[2] = system: brain; assay: NGS fold enrichment of synthetic library (passage 3) in BALB/c mice, first cross-species screen; format: in vivo
Outline: as §1

[3] = system: brain; assay: NGS fold enrichment of synthetic library (passage 3) in C57Bl/6 mice, first cross-species screen; format: in vivo
Outline: as §1

[4] = RNA from spinal cord of NHPs, NGS
[5] = RNA from brain of BALB/c mice, NGS
[6] = RNA from brain of C57Bl/6 mice, NGS

| Sequence | Fold enrichment over AAV9 in the brain of NHPs ([1]; RNA from brain of NHPs, NGS) | Fold enrichment over AAV9 in the spinal cord of NHPs [1, 4] | Fold enrichment over AAV9 in the brain of Mice (BALB/c) [2, 5] | Fold enrichment over AAV9 in the brain of Mice (C57Bl/6) [3, 6] | Fold enrichment over AAV9 in the brain of NHPs ([1]; RNA NGS, brain of NHPs) | Fold enrichment over AAV9 in the spinal cord of NHPs ([1]; RNA NGS, spinal cord of NHPs) | Fold enrichment over AAV9 in the brain of Mice (BALB/c) ([2]; RNA NGS, brain of BALB/c mice) | Fold enrichment over AAV9 in the brain of Mice (C57Bl/6) ([3]; RNA NGS, brain of C57Bl/6 mice) |
| --- | --- | --- | --- | --- | --- | --- | --- | --- |
| GSGQMSDVHGNQQT | 1.346 fold | 7.172 fold | 0.548 fold | 0.408 fold | – | – | – | – |
| GSGQMVHTIGNQQT | – | – | – | – | 1.026 fold | 1.328 fold | 0.430 fold | 0.406 fold |
| GSGQNAGSFPNQQT | – | – | – | – | 1.928 fold | 12.575 fold | 0.286 fold | 1.091 fold |
| GSGQNAHAKEGQQT | – | – | – | – | 1.108 fold | 0.000 fold | 1.179 fold | 0.875 fold |
| GSGQNAQQAAAQQT | – | – | – | – | 1.568 fold | 4.239 fold | 0.604 fold | 0.937 fold |
| GSGQNARLKDNQQT | 1.354 fold | 2.395 fold | 0.938 fold | 0.580 fold | – | – | – | – |
| GSGQNAYSSQAQQT | 1.201 fold | 12.096 fold | 0.216 fold | 0.629 fold | – | – | – | – |
| GSGQNERHLVLQQT | – | – | – | – | 1.019 fold | 5.354 fold | 0.150 fold | 0.416 fold |
| GSGQNGGSSNRQQT | – | – | – | – | 1.109 fold | 2.594 fold | 0.844 fold | 1.255 fold |
| GSGQNGHLSLKQQT | – | – | – | – | 2.362 fold | 1.896 fold | 0.270 fold | 0.718 fold |
| GSGQNHGLQSGQQT | – | – | – | – | 1.530 fold | 4.960 fold | 0.779 fold | 0.938 fold |
| GSGQNHGVLSNQQT | – | – | – | – | 2.254 fold | 1.603 fold | 0.701 fold | 1.113 fold |
| GSGQNHRPSVLQQT | – | – | – | – | 1.983 fold | 5.582 fold | 0.582 fold | 0.433 fold |
| GSGQNHRSADMQQT | – | – | – | – | 1.084 fold | 12.001 fold | 0.212 fold | 0.417 fold |
| GSGQNIGHSLPQQT | 1.264 fold | 6.183 fold | 0.478 fold | 0.740 fold | – | – | – | – |
| GSGQNKDHSTRRQT | 1.197 fold | 0.000 fold | 0.477 fold | 0.384 fold | – | – | – | – |
| GSGQNKQMLSGNTT | 1.410 fold | 2.219 fold | 0.404 fold | 1.074 fold | – | – | – | – |
| GSGQNLAGRMDQQT | – | – | – | – | 1.864 fold | 0.085 fold | 0.295 fold | 0.362 fold |
| GSGQNLGLLGAQQT | 1.161 fold | 1.458 fold | 0.226 fold | 0.524 fold | – | – | – | – |
| GSGQNLHSGLPQQT | 1.363 fold | 1.594 fold | 0.592 fold | 1.054 fold | – | – | – | – |

| Sequence | Fold enrichment over AAV9 in the brain of NHPs ([1]; RNA from brain of NHPs, NGS) | Fold enrichment over AAV9 in the spinal cord of NHPs [1, 4] | Fold enrichment over AAV9 in the brain of Mice (BALB/c) [2, 5] | Fold enrichment over AAV9 in the brain of Mice (C57Bl/6) [3, 6] | Fold enrichment over AAV9 in the brain of NHPs ([1]; RNA NGS, brain of NHPs) | Fold enrichment over AAV9 in the spinal cord of NHPs ([1]; RNA NGS, spinal cord of NHPs) | Fold enrichment over AAV9 in the brain of Mice (BALB/c) ([2]; RNA NGS, brain of BALB/c mice) | Fold enrichment over AAV9 in the brain of Mice (C57Bl/6) ([3]; RNA NGS, brain of C57Bl/6 mice) |
| --- | --- | --- | --- | --- | --- | --- | --- | --- |
| GSGQNPIRGAMQQT | 1.126 fold | 1.327 fold | 0.427 fold | 1.296 fold | – | – | – | – |
| GSGQNPSFMRGQQT | 1.252 fold | 1.454 fold | 1.094 fold | 1.293 fold | – | – | – | – |
| GSGQNQAGHGPGQT | – | – | – | – | 1.670 fold | 2.861 fold | 0.887 fold | 1.040 fold |
| GSGQNQALVSMGQT | 1.255 fold | 1.876 fold | 0.560 fold | 0.987 fold | – | – | – | – |
| GSGQNQAMTHGDQT | 1.257 fold | 1.878 fold | 0.259 fold | 0.357 fold | – | – | – | – |
| GSGQNQANWVKVQT | – | – | – | – | 1.059 fold | 0.126 fold | 0.532 fold | 0.683 fold |
| GSGQNQAVHNKSQT | – | – | – | – | 1.956 fold | 3.791 fold | 1.083 fold | 1.465 fold |
| GSGQNQDHQNKQQT | 1.308 fold | 1.470 fold | 0.761 fold | 0.510 fold | – | – | – | – |
| GSGQNQGLLSSPQT | 1.164 fold | 0.000 fold | 0.417 fold | 0.707 fold | – | – | – | – |
| GSGQNQGRAHPMQT | – | – | – | – | 1.007 fold | 2.364 fold | 0.453 fold | 0.684 fold |
| GSGQNQGTVYPNQT | 1.358 fold | 7.648 fold | 0.815 fold | 0.835 fold | – | – | – | – |
| GSGQNQHHSVSQQT | – | – | – | – | 1.623 fold | 3.700 fold | 0.334 fold | 0.605 fold |
| GSGQNQHLSSFVQT | – | – | – | – | 1.013 fold | 0.110 fold | 0.364 fold | 1.090 fold |
| GSGQNQHSAPFNQT | – | – | – | – | 1.969 fold | 0.499 fold | 0.870 fold | 0.759 fold |
| GSGQNQHSAPNSQT | – | – | – | – | 2.134 fold | 4.143 fold | 0.731 fold | 1.187 fold |
| GSGQNQHSLGNYQT | – | – | – | – | 2.143 fold | 1.896 fold | 0.606 fold | 1.077 fold |
| GSGQNQHSLPAHRT | 1.361 fold | 0.700 fold | 0.742 fold | 0.911 fold | – | – | – | – |
| GSGQNQHSVHNDQT | – | – | – | – | 1.428 fold | 0.000 fold | 0.515 fold | 0.521 fold |
| GSGQNQHSVQVRQT | – | – | – | – | 1.116 fold | 1.909 fold | 0.916 fold | 0.782 fold |
| GSGQNQHYSLHKQT | – | – | – | – | 1.563 fold | 3.399 fold | 1.273 fold | 1.485 fold |
